Molecules are shown by their SMILES. Where a name gives a salt, the structure may show the parent alone.

Series [1] in a line: Example 2: stability of sapropterin hydrochloride mixed 1:5 with sweeteners, uncapped vial 40° C., 75% RH. The class given is physicochemical. The settings on record: 8 weeks. Here is the method:
Sapropterin hydrochloride was mixed at a 1:5 ratio with each of the three sweeteners described above. 2 g of the mixture was placed in a glass vial and the vial was left uncapped at 40° C., 75% RH, to evaluate the stability of the preparation and sapropterin hydrochloride. […] The preparations using sucrose and fructose even underwent deliquescence. The remaining sapropterin hydrochloride was quantified by liquid chromatography that can differentiate sapropterin hydrochloride from its analogues. The area of the peak for sapropterin hydrochloride was determined and was used to calculate the remaining sapropterin hydrochloride (The same procedure was followed in other examples).

A short description of series [2]: Example 7: stability of sapropterin hydrochloride blended 200:1 with coloring agents. The class given is physicochemical. The method, then: Sapropterin hydrochloride was mixed at a 200:1 ratio with different coloring agents. 0.2 g of each mixture was placed in a glass vial, which was then sealed with a metal cap and was stored at 40° C. and 75% RH for 4 weeks. Subsequently, the mixtures were evaluated for stability (i.e., change in appearance, amount of remaining active ingredient).

Turning to `C[C@H](O)[C@H](O)[C@H]1CNc2nc(N)[nH]c(=O)c2N1` [None, sapropterin hydrochloride], in series [1], the “% amount of remaining sapropterin hydrochloride after storage” value worked out at 98.7% and the Appearance after storage result is listed as “Yellowish white”. For the same compound, in series [2] (After 4-week storage (40° C./75% RH), sealed vial), the “% amount remained” value was determined as 99.6%. In addition, the Initial appearance result in series [2] (before storage) was “White”.

For the origin of these results see US20080207624A1, “Therapeutic Agent for Bh4-Responsive Hyperphenylalaninemia” (priority 2004, published 2008).
